The NIST ThermoML archive (doi:10.1016/j.jct.2015.08.014)
Numbers after ± are expanded uncertainties.

Assay: xn = mol fraction of the nth substance listed
Conditions: 100 kPa, Liquid; for electrical conductivity: Alternating current cell with electrodes; for mass density: Vibrating tube method; for viscosity: Capillary tube (Ostwald / Ubbelohde) method

CCCC[N+]1(C)CCCC1.N#CN=C=[N-] [1-butyl-1-methylpyrrolidinium dicyanamide] + O=C1CCCO1
Conditions	electrical conductivity [S/m]
283.15 K, Frequency=0.008 MHz, x1 = 0.0463	1.17 ± 0.02
283.15 K, Frequency=0.008 MHz, x1 = 0.0987	1.73 ± 0.021
283.15 K, Frequency=0.008 MHz, x1 = 0.1449	1.93 ± 0.02
283.15 K, Frequency=0.008 MHz, x1 = 0.1859	2.028 ± 0.02
283.15 K, Frequency=0.008 MHz, x1 = 0.2493	1.926 ± 0.019
283.15 K, Frequency=0.008 MHz, x1 = 0.3029	1.84 ± 0.019
283.15 K, Frequency=0.008 MHz, x1 = 0.3845	1.66 ± 0.017
283.15 K, Frequency=0.008 MHz, x1 = 0.4985	1.407 ± 0.014
283.15 K, Frequency=0.008 MHz, x1 = 0.6954	1.07 ± 0.01
283.15 K, Frequency=0.008 MHz, x1 = 0.9013	0.849 ± 0.009
283.15 K, Frequency=0.008 MHz, x1 = 1	0.786 ± 0.008
283.15 K, Frequency=0.00857143 MHz, x1 = 0.0463	1.17 ± 0.02
283.15 K, Frequency=0.00857143 MHz, x1 = 0.0987	1.73 ± 0.021
283.15 K, Frequency=0.00857143 MHz, x1 = 0.1449	1.93 ± 0.02
283.15 K, Frequency=0.00857143 MHz, x1 = 0.1859	2.028 ± 0.02
283.15 K, Frequency=0.00857143 MHz, x1 = 0.2493	1.926 ± 0.019
283.15 K, Frequency=0.00857143 MHz, x1 = 0.3029	1.84 ± 0.019
283.15 K, Frequency=0.00857143 MHz, x1 = 0.3845	1.66 ± 0.017
283.15 K, Frequency=0.00857143 MHz, x1 = 0.4985	1.407 ± 0.014
283.15 K, Frequency=0.00857143 MHz, x1 = 0.6954	1.07 ± 0.01
283.15 K, Frequency=0.00857143 MHz, x1 = 0.9013	0.849 ± 0.009
283.15 K, Frequency=0.00857143 MHz, x1 = 1	0.786 ± 0.008
283.15 K, Frequency=0.00892857 MHz, x1 = 0.0463	1.17 ± 0.02
283.15 K, Frequency=0.00892857 MHz, x1 = 0.0987	1.73 ± 0.021
283.15 K, Frequency=0.00892857 MHz, x1 = 0.1449	1.93 ± 0.02
283.15 K, Frequency=0.00892857 MHz, x1 = 0.1859	2.028 ± 0.02
283.15 K, Frequency=0.00892857 MHz, x1 = 0.2493	1.926 ± 0.019
283.15 K, Frequency=0.00892857 MHz, x1 = 0.3029	1.84 ± 0.019
283.15 K, Frequency=0.00892857 MHz, x1 = 0.3845	1.66 ± 0.017
283.15 K, Frequency=0.00892857 MHz, x1 = 0.4985	1.407 ± 0.014
283.15 K, Frequency=0.00892857 MHz, x1 = 0.6954	1.07 ± 0.01
283.15 K, Frequency=0.00892857 MHz, x1 = 0.9013	0.849 ± 0.009
283.15 K, Frequency=0.00892857 MHz, x1 = 1	0.786 ± 0.008
283.15 K, Frequency=0.00961538 MHz, x1 = 0.0463	1.17 ± 0.02
283.15 K, Frequency=0.00961538 MHz, x1 = 0.0987	1.73 ± 0.021
283.15 K, Frequency=0.00961538 MHz, x1 = 0.1449	1.93 ± 0.02
283.15 K, Frequency=0.00961538 MHz, x1 = 0.1859	2.028 ± 0.02
283.15 K, Frequency=0.00961538 MHz, x1 = 0.2493	1.927 ± 0.019
283.15 K, Frequency=0.00961538 MHz, x1 = 0.3029	1.84 ± 0.019
283.15 K, Frequency=0.00961538 MHz, x1 = 0.3845	1.66 ± 0.017
283.15 K, Frequency=0.00961538 MHz, x1 = 0.4985	1.407 ± 0.014
283.15 K, Frequency=0.00961538 MHz, x1 = 0.6954	1.07 ± 0.01
283.15 K, Frequency=0.00961538 MHz, x1 = 0.9013	0.849 ± 0.009
283.15 K, Frequency=0.00961538 MHz, x1 = 1	0.786 ± 0.008
283.15 K, Frequency=0.01 MHz, x1 = 0.0463	1.17 ± 0.02
283.15 K, Frequency=0.01 MHz, x1 = 0.0987	1.73 ± 0.021
283.15 K, Frequency=0.01 MHz, x1 = 0.1449	1.93 ± 0.02
283.15 K, Frequency=0.01 MHz, x1 = 0.1859	2.028 ± 0.02
283.15 K, Frequency=0.01 MHz, x1 = 0.2493	1.927 ± 0.019
283.15 K, Frequency=0.01 MHz, x1 = 0.3029	1.84 ± 0.019
283.15 K, Frequency=0.01 MHz, x1 = 0.3845	1.66 ± 0.017
283.15 K, Frequency=0.01 MHz, x1 = 0.4985	1.407 ± 0.014
283.15 K, Frequency=0.01 MHz, x1 = 0.6954	1.07 ± 0.01
283.15 K, Frequency=0.01 MHz, x1 = 0.9013	0.849 ± 0.009
283.15 K, Frequency=0.01 MHz, x1 = 1	0.786 ± 0.008
293.15 K, Frequency=0.0005 MHz, x1 = 0.0463	1.36 ± 0.024
293.15 K, Frequency=0.0005 MHz, x1 = 0.0987	2.03 ± 0.025
293.15 K, Frequency=0.0005 MHz, x1 = 0.1449	2.31 ± 0.024
293.15 K, Frequency=0.0005 MHz, x1 = 0.1859	2.426 ± 0.024
293.15 K, Frequency=0.0005 MHz, x1 = 0.2493	2.37 ± 0.024
293.15 K, Frequency=0.0005 MHz, x1 = 0.3029	2.28 ± 0.023
293.15 K, Frequency=0.0005 MHz, x1 = 0.3845	2.108 ± 0.021
293.15 K, Frequency=0.0005 MHz, x1 = 0.4985	1.84 ± 0.019
293.15 K, Frequency=0.0005 MHz, x1 = 0.6954	1.45 ± 0.015
293.15 K, Frequency=0.0005 MHz, x1 = 0.9013	1.19 ± 0.012
293.15 K, Frequency=0.0005 MHz, x1 = 1	1.122 ± 0.011
293.15 K, Frequency=0.001 MHz, x1 = 0.0463	1.36 ± 0.024
293.15 K, Frequency=0.001 MHz, x1 = 0.0987	2.04 ± 0.025
293.15 K, Frequency=0.001 MHz, x1 = 0.1449	2.31 ± 0.024
293.15 K, Frequency=0.001 MHz, x1 = 0.1859	2.435 ± 0.024
293.15 K, Frequency=0.001 MHz, x1 = 0.2493	2.37 ± 0.024
293.15 K, Frequency=0.001 MHz, x1 = 0.3029	2.29 ± 0.023
293.15 K, Frequency=0.001 MHz, x1 = 0.3845	2.111 ± 0.021
293.15 K, Frequency=0.001 MHz, x1 = 0.4985	1.84 ± 0.019
293.15 K, Frequency=0.001 MHz, x1 = 0.6954	1.46 ± 0.015
293.15 K, Frequency=0.001 MHz, x1 = 0.9013	1.19 ± 0.012
293.15 K, Frequency=0.001 MHz, x1 = 1	1.122 ± 0.011
293.15 K, Frequency=0.0015 MHz, x1 = 0.0463	1.37 ± 0.024
293.15 K, Frequency=0.0015 MHz, x1 = 0.0987	2.04 ± 0.025
293.15 K, Frequency=0.0015 MHz, x1 = 0.1449	2.31 ± 0.024
293.15 K, Frequency=0.0015 MHz, x1 = 0.1859	2.44 ± 0.024
293.15 K, Frequency=0.0015 MHz, x1 = 0.2493	2.37 ± 0.024

Conditions	electrical conductivity, 293.15 K [S/m]	mass density, 283.15 K [kg/m3]	viscosity, 293.15 K [mPa·s]
x1 = 0.0463	1.37 ± 0.024	–	–
x1 = 0.0987	2.05 ± 0.025	1116.14 ± 8.9	3.07 ± 0.07
x1 = 0.1449	2.31 ± 0.024	–	–
x1 = 0.1859	2.45 ± 0.025	1099.19 ± 8.8	4.46 ± 0.1
x1 = 0.2493	2.37 ± 0.024	–	–
x1 = 0.3029	2.29 ± 0.023	1080.61 ± 8.7	6.96 ± 0.16
x1 = 0.3845	2.116 ± 0.021	–	–
x1 = 0.4985	1.84 ± 0.019	1057.34 ± 8.5	13.06 ± 0.29
x1 = 0.6954	1.46 ± 0.015	1040.35 ± 8.3	21.74 ± 0.49
x1 = 0.9013	1.19 ± 0.012	1027.12 ± 8.3	33.58 ± 0.76
x1 = 1	1.123 ± 0.011	1021.96 ± 8.2	40.25 ± 0.91
